The values below come from patent publication US20240050385A1, “METHODS OF TREATING LEPTOMENINGEAL METASTASIS” (MEMORIAL SLOAN-KETTERING CANCER CENTER, priority 2020, published 2024).

The subject of series [1] is PC9-LeptoM cells. Nature of the series: In vivo leptomeningeal metastasis assay, PC9-LeptoM model, intracisternal chelator treatment. Also on record: species or system mouse. The note with it: for Median Survival: every 3 days; for [Fe]: total iron in CSF. An excerpt:
(§1) FIG. 16A-16L. Iron chelator treatment reduces CSF iron. (A) Experimental scheme. Mice were inoculated with 2×10^3 cells intrathecally on day 0. Treatment with either vehicle, DFO, or D-pen was commenced on either day 1 or day 7 and continued every third day for a total of 7 doses. (B) Chelators delivered intrathecally. DFO, Deferoxamine. D-Pen, D-Penicillamine. (C-F) Intracellular iron (C and E) and viability (D and F) of PC9-LeptoM cells and MDA231-LeptoM cells after treatment with chelators in different concentrations (0 μM, 1 μM, 10 μM and 100 μM). n=3-4 per group in each of two independent experiments. * indicates p<0.05, ** indicates p<0.01, ***indicates p<0.001, **** indicates p<0.0001 (unpaired t test). Data represent mean±SEM. (G) Growth of PC9-LeptoM tumor after treatment indicated in (A). Left: in vivo BLI imaging in day 28 post-inoculation. n=8-10 per group in each of two independent experiments. Right: Representative BLI images. **** indicates p<0.0001. Data represent mean±SEM. (H) Kaplan-Meier survival curve from (C) and (E). p<0.0001. (I and J) Total iron concentration measured in CSF samples of mice with treatment of chelators in PC9-LeptoM Model (I) in MDA231-LeptoM model (J). NS=not significant, * indicates p<0.05, ** indicates p<0.01 (unpaired t test). Data represent mean±SEM. (K and L) Immune cell composition in CSF of LLC-LeptoM model with the treatment of vehicle, DFO, or D-pen at day 10. n=6 per group. NS=not significant, * indicates p<0.05, ** indicates p<0.01 (unpaired t test). Data represent mean±SEM.
In vivo leptomeningeal metastasis assays. To model leptomeningeal metastasis with a known consistent disease burden, 2×10^3 PC9, 2×10^3 MDA231, or 1×10^3 LLC Parental or LeptoM cells suspended in 10 μl PBS were injected into the cisterna magna of anesthetized mice. This procedure was tolerated well by the mice. Tumor progression was monitored by bioluminescence imaging (BLI) every 7 days after tumor cell inoculation, and mouse condition was monitored daily. When the tumor cells encompassed the entire CNS, or when neurological impairment became apparent, CSF was collected as described above, and mice were euthanized. Brains and spinal cord were collected in tissue fixative and embedded for preservation or histological and morphometric analysis. The role of LCN2 in cancer progression at multiple metastatic sites was also assessed. Tumor burden was monitored and quantified non-invasively after tumor cell inoculation either by BLI signal using the IVIS Spectrum Xenogen (Caliper Life Sciences) machine or with calibrated digital caliper. To track cancer cell growth after hematogenous dissemination, 5×10^4 PC9-LeptoM cells (shCtl, shLCN2-1 and shLCN2-2) suspended in 50 μL PBS were injected into the left heart ventricle. Tumor burden was monitored every 3 days with BLI. To measure cancer cell growth in the lungs, 2.5×10^4 PC9-LeptoM cells (diluted 1:1 in Growth factor-reduced Matrigel, #354230) were injected into the left lung through the rib cage. Tumor burden was monitored every 3 days with BLI. To assess cancer cell growth after subcutaneous inoculation, 1×10^6 PC9-LeptoM cells (diluted 1:1 in growth factor-reduced Matrigel) were injected under the flank skin of the mouse, and tumor burden was monitored every 3 days with calibrated digital caliper. To introduce cells into the mammary fat pad, 5×10^4 MDA-231-LeptoM cells (diluted 1:1 in growth factor-reduced Matrigel) were injected into the fourth inguinal mammary fat pad; tumor burden was measured every 3 days with calibrated digital caliper. To test a hypoxic environment other than the leptomeninges, 5×10^6 cells, diluted in 200 uL PBS, were injected intraperitoneally. Tumor burden was monitored 7 days after inoculation by BLI. Exact numbers for each experimental series are included in the relevant Figure legends.
Mouse CSF collection and Intrathecal drug administration. […]

Series [2] has as its system PC9-LeptoM cells. The series is described as above. Also on record: species or system mouse.
Series [3] can be described thus: IT-DFO dose escalation toxicity in healthy C57BL6/J mice. Format: in vivo, mouse. As to the method: An IT-DFO dose escalation experiment was completed to determine the lethal dose to 10% of rodents (LD10) and any dose-dependent toxicities to the systemic circulation and organ function in a mouse model. In this study, healthy C57BL6/J mice were injected intracistemally with either PBS (control) or with a fixed dose of DFO (0.05 μM, 1 μM, 10 μM, 50 μM and 100 μM) in replicate at a schedule of twice weekly for a total of 6 weeks (42 days). Mice were monitored for weekly weights and survival trends. Remaining mice were sacrificed on day 46 and circulating blood collected via cardiac puncture. Blood was sent for complete blood count (CBC) with automated differential and complete metabolic panels (CMP).

Another series has as its system LeptoM cells. Nature of the series: Cell Viability Assay / growth after chelator treatment. The series is classed as cell-based, human. The following applies: PC9-LeptoM and MDA231-LeptoM; in words.
Excerpt: as §1, with “NS=not significant, * indicates p<0.05, ** indicates p<0.01 (unpaired t test). Data represent mean±SEM. (K and L) Immune cell composition in CSF of LLC-LeptoM model with the treatment of vehicle, DFO, or D-pen at day 10. n=6 per group. NS=not significant, * indicates p<0.05, ** indicates p<0.01 (unpaired t test). Data represent mean±SEM.” left out
Cell Viability Assay. […] The CellTiter-Glo Luminescent Cell Viability Assay (Promega G9241) was used to quantify viable cells in culture according to the manufacturer's protocols. […]

Molecules are shown by their SMILES. Entries after “also recorded” stand apart in the source; their conditions may differ. Structures can show the parent of a compound that is named as a salt.

For `CC(C)(S)[C@@H](N)C(=O)O` [D-Pen, D-penicillamine], the “Median Survival” value in the series with PC9-LeptoM cells [1] (PC9-LeptoM model, intracisternal, start day not given) worked out at 31.5 ± 3.5 days. Moreover, the “[Fe]” value with PC9-LeptoM cells [1] (PC9-LeptoM model, start day not given) was 15.13 ± 4.21 µM.
For the compound `CC(=O)N(O)CCCCCNC(=O)CCC(=O)N(O)CCCCCNC(=O)CCC(=O)N(O)CCCCCN` [DFO, Deferoxamine mesylate], the “[Fe]” value in the series with PC9-LeptoM cells [2] (total iron in CSF, early (day 0)) turned out to be 5.63 ± 0.70 µM; with PC9-LeptoM cells [1] (PC9-LeptoM model, late (day 7)) it was 4.74 ± 0.38 µM. Moreover, the “Median Survival” value in the series on PC9-LeptoM cells [2] (treatment begun early (day 0), every 3 days) is 52 ± 7 days; in the series on PC9-LeptoM cells [1] (PC9-LeptoM model, treatment begun late (day 7)) it was 40 ± 5 days. In addition, the “iron concentration in the CSF compared to control mice” value with PC9-LeptoM cells [1] (PC9-LeptoM model, day 28, in words) was “profoundly decreased; also recorded: reduced CSF iron concentration to that of non-LeptoM control mice”. Moreover, in the series with PC9-LeptoM cells [1] (PC9 mouse model, both early and late treatment groups, in words), the “dissemination of cancer cells over the spinal cord” value is “impaired dissemination”. Besides, the “survival compared with vehicle control” value with PC9-LeptoM cells [1] (PC9 mouse model, in words) is on record as “conferred a survival benefit; also recorded: significant survival benefit”. Besides, the “lethality with cumulative twice weekly dosing (LD for % rodents)” value came out at 8.3% in series [3] (10 μM group, one mouse died at day 24, total N=12) and 12.5% in series [3] (50 μM group, one mouse died at day 46, total N=8). Besides, in series [3] (any tested concentration (0.05, 1, 10, 50, 100 μM)), the “lethality following a single dose” value is given as “no mice died”. In addition, the “tolerability of intracisternal administration” value in series [3] (mouse, in vivo) was “well tolerated”. Further, the “growth of the LeptoM cells” value in the series on LeptoM cells is recorded as “substantially suppressed; also recorded: dramatically suppressed”.
